Laboratory results reported in PubChem BioAssay (NCI).
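Step 1: Grow cells in 96-well plates. Step 2: Expose to compound for 48 hours at 5 concentrations. Step 3: Interpolate endpoints linearly; if unreached, use highest concentration. TGI: total growth inhibition.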

Columns and labels:
Assay in all cases: inhibition of tumour cell growth, NCI panel, 48 h
U251 CNS = system: U251 CNS
IGROV1 ovarian = system: IGROV1 ovarian
KM12 colon = system: KM12 colon
HS 578T breast = system: HS 578T breast
SN12C renal = system: SN12C renal
SNB-75 CNS = system: SNB-75 CNS
SW-620 colon = system: SW-620 colon
MOLT-4 leukemia = system: MOLT-4 leukemia
UACC-257 melanoma = system: UACC-257 melanoma
NCI-H226 lung = system: NCI-H226 lung
SK-MEL-5 melanoma = system: SK-MEL-5 melanoma
MDA-MB-435 = system: MDA-MB-435
COLO 205 colon = system: COLO 205 colon
LOX IMVI melanoma = system: LOX IMVI melanoma
A549 NSCLC = system: A549 NSCLC
OVCAR-8 ovarian = system: OVCAR-8 ovarian
UACC-62 melanoma = system: UACC-62 melanoma
RXF 393 renal = system: RXF 393 renal
NCI-H460 lung = system: NCI-H460 lung
CCRF-CEM leukemia = system: CCRF-CEM leukemia
OVCAR-4 ovarian = system: OVCAR-4 ovarian
SNB-19 CNS = system: SNB-19 CNS
HOP-92 NSCLC = system: HOP-92 NSCLC
TK-10 renal = system: TK-10 renal
MDA-N = system: MDA-N
HT29 colon = system: HT29 colon
SF-268 CNS = system: SF-268 CNS
DU-145 prostate = system: DU-145 prostate
K-562 leukemia = system: K-562 leukemia
T-47D breast = system: T-47D breast
RPMI-8226 leukemia = system: RPMI-8226 leukemia
BT-549 breast = system: BT-549 breast
CAKI-1 renal = system: CAKI-1 renal
HCT-116 colon = system: HCT-116 colon
HOP-62 NSCLC = system: HOP-62 NSCLC
MCF7 breast = system: MCF7 breast
NCI-H23 lung = system: NCI-H23 lung
OVCAR-3 ovarian = system: OVCAR-3 ovarian
SK-MEL-2 melanoma = system: SK-MEL-2 melanoma
NCI-H522 lung = system: NCI-H522 lung
EKVX NSCLC = system: EKVX NSCLC
SR leukemia = system: SR leukemia
OVCAR-5 ovarian = system: OVCAR-5 ovarian
MDA-MB-231 breast = system: MDA-MB-231 breast
SK-MEL-28 melanoma = system: SK-MEL-28 melanoma
HCC-2998 colon = system: HCC-2998 colon
SK-OV-3 ovarian = system: SK-OV-3 ovarian
UO-31 renal = system: UO-31 renal
MALME-3M melanoma = system: MALME-3M melanoma
SF-539 CNS = system: SF-539 CNS
ACHN renal = system: ACHN renal
M14 melanoma = system: M14 melanoma
NCI/ADR-RES ovarian = system: NCI/ADR-RES ovarian
PC-3 prostate = system: PC-3 prostate
SF-295 CNS = system: SF-295 CNS
HL-60(TB) leukemia = system: HL-60(TB) leukemia
HCT-15 colon = system: HCT-15 colon
786-0 renal = system: 786-0 renal
A498 renal = system: A498 renal

Compound: C/C(=N\Oc1cc(Cl)ncn1)c1ccccn1
- TGI (U251 CNS): > 100 µM
- TGI (IGROV1 ovarian): > 100 µM
- TGI (KM12 colon): > 100 µM
- TGI (HS 578T breast): > 100 µM
- TGI (SN12C renal): > 100 µM
- TGI (SNB-75 CNS): > 100 µM
- TGI (SW-620 colon): > 100 µM
- TGI (MOLT-4 leukemia): > 100 µM
- TGI (UACC-257 melanoma): > 100 µM
- TGI (NCI-H226 lung): > 100 µM
- TGI (SK-MEL-5 melanoma): > 100 µM
- TGI (MDA-MB-435): > 100 µM
- TGI (COLO 205 colon): > 100 µM
- TGI (LOX IMVI melanoma): > 100 µM
- TGI (A549 NSCLC): > 100 µM
- TGI (OVCAR-8 ovarian): > 100 µM
- TGI (UACC-62 melanoma): > 100 µM
- TGI (RXF 393 renal): 95.7 µM
- TGI (NCI-H460 lung): 67.9 µM
- TGI (CCRF-CEM leukemia): > 100 µM
- TGI (OVCAR-4 ovarian): > 100 µM
- TGI (SNB-19 CNS): > 100 µM
- TGI (HOP-92 NSCLC): 74.3 µM
- TGI (TK-10 renal): > 100 µM
- TGI (MDA-N): > 100 µM
- TGI (HT29 colon): > 100 µM
- TGI (SF-268 CNS): > 100 µM
- TGI (DU-145 prostate): > 100 µM
- TGI (K-562 leukemia): > 100 µM
- TGI (T-47D breast): > 100 µM
- TGI (RPMI-8226 leukemia): > 100 µM
- TGI (BT-549 breast): > 100 µM
- TGI (CAKI-1 renal): 57.5 µM
- TGI (HCT-116 colon): > 100 µM
- TGI (HOP-62 NSCLC): > 100 µM
- TGI (MCF7 breast): > 100 µM
- TGI (NCI-H23 lung): 92.7 µM
- TGI (OVCAR-3 ovarian): > 100 µM
- TGI (SK-MEL-2 melanoma): > 100 µM
- TGI (NCI-H522 lung): 39.4 µM
- TGI (EKVX NSCLC): > 100 µM
- TGI (SR leukemia): > 100 µM
- TGI (OVCAR-5 ovarian): > 100 µM
- TGI (MDA-MB-231 breast): 87.6 µM
- TGI (SK-MEL-28 melanoma): > 100 µM
- TGI (HCC-2998 colon): 72.1 µM
- TGI (SK-OV-3 ovarian): > 100 µM
- TGI (UO-31 renal): > 100 µM
- TGI (MALME-3M melanoma): > 100 µM
- TGI (SF-539 CNS): > 100 µM
- TGI (ACHN renal): > 100 µM
- TGI (M14 melanoma): > 100 µM
- TGI (NCI/ADR-RES ovarian): > 100 µM
- TGI (PC-3 prostate): > 100 µM
- TGI (SF-295 CNS): > 100 µM

Compound: O=C(O)[C@@H]1CCC(=O)N1C(c1ccc2c(c1)OCO2)c1ccc2c(c1)OCO2
- TGI (U251 CNS): > 100 µM
- TGI (IGROV1 ovarian): > 100 µM
- TGI (KM12 colon): > 100 µM
- TGI (HS 578T breast): > 100 µM
- TGI (SN12C renal): > 100 µM
- TGI (HL-60(TB) leukemia): > 100 µM
- TGI (SNB-75 CNS): > 100 µM
- TGI (SW-620 colon): > 100 µM
- TGI (MOLT-4 leukemia): > 100 µM
- TGI (UACC-257 melanoma): > 100 µM
- TGI (NCI-H226 lung): > 100 µM
- TGI (SK-MEL-5 melanoma): > 100 µM
- TGI (MDA-MB-435): > 100 µM
- TGI (COLO 205 colon): > 100 µM
- TGI (LOX IMVI melanoma): > 100 µM
- TGI (A549 NSCLC): > 100 µM
- TGI (OVCAR-8 ovarian): > 100 µM
- TGI (UACC-62 melanoma): > 100 µM
- TGI (NCI-H460 lung): > 100 µM
- TGI (HCT-15 colon): > 100 µM
- TGI (786-0 renal): > 100 µM
- TGI (OVCAR-4 ovarian): > 100 µM
- TGI (SNB-19 CNS): > 100 µM
- TGI (HOP-92 NSCLC): > 100 µM
- TGI (TK-10 renal): > 100 µM
- TGI (MDA-N): > 100 µM
- TGI (HT29 colon): > 100 µM
- TGI (SF-268 CNS): > 100 µM
- TGI (DU-145 prostate): > 100 µM
- TGI (K-562 leukemia): > 100 µM
- TGI (T-47D breast): > 100 µM
- TGI (RPMI-8226 leukemia): > 100 µM
- TGI (A498 renal): > 100 µM
- TGI (BT-549 breast): > 100 µM
- TGI (CAKI-1 renal): > 100 µM
- TGI (HCT-116 colon): > 100 µM
- TGI (HOP-62 NSCLC): > 100 µM
- TGI (MCF7 breast): > 100 µM
- TGI (NCI-H23 lung): > 100 µM
- TGI (OVCAR-3 ovarian): > 100 µM
- TGI (SK-MEL-2 melanoma): > 100 µM
- TGI (NCI-H522 lung): > 100 µM
- TGI (EKVX NSCLC): > 100 µM
- TGI (SR leukemia): > 100 µM
- TGI (OVCAR-5 ovarian): > 100 µM
- TGI (MDA-MB-231 breast): > 100 µM
- TGI (SK-MEL-28 melanoma): > 100 µM
- TGI (HCC-2998 colon): > 100 µM
- TGI (UO-31 renal): > 100 µM
- TGI (MALME-3M melanoma): > 100 µM
- TGI (SF-539 CNS): > 100 µM
- TGI (ACHN renal): > 100 µM
- TGI (M14 melanoma): > 100 µM
- TGI (NCI/ADR-RES ovarian): > 100 µM
- TGI (PC-3 prostate): > 100 µM
- TGI (SF-295 CNS): > 100 µM

Compound: OCC1OC(OCC(O)C(O)C(O)C(/C=N/Nc2ccccc2)=N/Nc2ccccc2)C(O)C(O)C1O (configuration not stated)
- TGI (U251 CNS): > 100 µM
- TGI (IGROV1 ovarian): > 100 µM
- TGI (KM12 colon): > 100 µM
- TGI (HS 578T breast): > 100 µM
- TGI (SN12C renal): > 100 µM
- TGI (HL-60(TB) leukemia): > 100 µM
- TGI (SNB-75 CNS): > 100 µM
- TGI (SW-620 colon): > 100 µM
- TGI (MOLT-4 leukemia): > 100 µM
- TGI (UACC-257 melanoma): > 100 µM
- TGI (SK-MEL-5 melanoma): > 100 µM
- TGI (MDA-MB-435): > 100 µM
- TGI (COLO 205 colon): > 100 µM
- TGI (LOX IMVI melanoma): > 100 µM
- TGI (A549 NSCLC): > 100 µM
- TGI (OVCAR-8 ovarian): > 100 µM
- TGI (NCI-H460 lung): > 100 µM
- TGI (HCT-15 colon): > 100 µM
- TGI (CCRF-CEM leukemia): > 100 µM
- TGI (786-0 renal): > 100 µM
- TGI (SNB-19 CNS): > 100 µM
- TGI (HOP-92 NSCLC): > 100 µM
- TGI (TK-10 renal): > 100 µM
- TGI (MDA-N): > 100 µM
- TGI (HT29 colon): > 100 µM
- TGI (SF-268 CNS): > 100 µM
- TGI (DU-145 prostate): > 100 µM
- TGI (T-47D breast): 56.9 µM
- TGI (RPMI-8226 leukemia): > 100 µM
- TGI (BT-549 breast): > 100 µM
- TGI (CAKI-1 renal): > 100 µM
- TGI (HCT-116 colon): > 100 µM
- TGI (HOP-62 NSCLC): > 100 µM
- TGI (MCF7 breast): > 100 µM
- TGI (NCI-H23 lung): > 100 µM
- TGI (OVCAR-3 ovarian): > 100 µM
- TGI (EKVX NSCLC): > 100 µM
- TGI (SR leukemia): > 100 µM
- TGI (OVCAR-5 ovarian): > 100 µM
- TGI (MDA-MB-231 breast): > 100 µM
- TGI (SK-MEL-28 melanoma): > 100 µM
- TGI (HCC-2998 colon): > 100 µM
- TGI (SK-OV-3 ovarian): > 100 µM
- TGI (UO-31 renal): > 100 µM
- TGI (MALME-3M melanoma): > 100 µM
- TGI (SF-539 CNS): > 100 µM
- TGI (ACHN renal): > 100 µM
- TGI (M14 melanoma): > 100 µM
- TGI (NCI/ADR-RES ovarian): > 100 µM
- TGI (PC-3 prostate): > 100 µM
- TGI (SF-295 CNS): > 100 µM
